# Measurements: patent US20070128217A1 (priority 2003, published 2007)
# Experiments:
# [1] = system: antibodies in sera from SARS patients (sera 1a, 1b, 2, 6, 37, 62, London, SARS-yellow, SARS-green); format: binding, human; set-up: Binding of serum 6 to linear peptides of protein X1 of SARS-CoV Urbani / Binding of serum 37 to linear peptides of protein X1 of SARS-CoV Urbani / Binding of serum 6 to looped/cyclic peptide (PEPSCAN-ELISA) / Binding of serum 37 to looped/cyclic peptide (PEPSCAN-ELISA) / Binding of serum 37 to looped/cyclic peptides of protein X1 of SARS-CoV Urbani / Binding of serum 6 to linear peptides of protein X2 / Binding of serum 37 to linear peptides of protein X2 / Binding of serum 37 to looped/cyclic peptides of protein X2 of SARS-CoV Urbani / Binding of serum 6 to linear peptides of protein M of SARS-CoV Urbani / Binding of serum 37 to linear peptides of protein M of SARS-CoV Urbani / Binding of serum 6 to looped/cyclic peptides of protein M of SARS-CoV Urbani / Binding of serum 37 to looped/cyclic peptides of protein M of SARS-CoV Urbani / Binding of serum 6 to linear peptides of protein X3 of SARS-CoV Urbani / Binding of serum 37 to linear peptides of protein X3 of SARS-CoV Urbani / Binding of serum 37 to looped/cyclic peptides of protein X3 of SARS-CoV Urbani / Binding of serum 6 to linear peptides of protein X4 of SARS-CoV Urbani / Binding of serum 37 to linear peptides of protein X4 of SARS-CoV Urbani / Binding of serum 37 to looped/cyclic peptides of protein X4 of SARS-CoV Urbani / Binding of serum 6 to linear peptides of protein X5 of SARS-CoV Urbani / Binding of serum 37 to linear peptides of protein X5 of SARS-CoV Urbani / Binding of serum 37 to looped/cyclic peptides of protein X5 of SARS-CoV Urbani / Binding of serum 6 to linear peptides of protein N of SARS-CoV Urbani / Binding of serum 37 to linear peptides of protein N of SARS-CoV Urbani / Binding of serum 6 to linear peptide (PEPSCAN-ELISA) / Binding of serum 1a to looped/cyclic peptides of protein N of SARS-CoV Urbani / Binding of serum 1b to looped/cyclic peptides of protein N of SARS-CoV Urbani / Binding of serum 2 to looped/cyclic peptides of protein N of SARS-CoV Urbani / Binding of serum 6 to looped/cyclic peptides of protein N of SARS-CoV Urbani / Binding of serum 37 to looped/cyclic peptides of protein N of SARS-CoV Urbani / Binding of serum 62 to looped/cyclic peptides of protein N of SARS-CoV Urbani / Binding of serum London to looped/cyclic peptides of protein N of SARS-CoV Urbani / Binding of serum SARS-green to looped/cyclic peptides of protein N of SARS-CoV Urbani: unit not given here
# [2] = system: control sera (pooled serum of ten healthy LUMC hospital workers; commercial negative donor pooled serum from the Dutch bloodbank); format: binding, human; set-up: Binding of Control serum LUMC to linear peptides / Binding of Control serum Blood-bank to linear peptides / Binding of Control serum LUMC to looped peptides / Binding of Control Serum Blood-Bank to Looped peptides / Binding of Control serum LUMC to linear peptides of the protein M of SARS-CoV Urbani / Binding of Control serum Blood-bank to linear peptides of the protein M of SARS-CoV Urbani / Binding of Control serum LUMC to looped peptides of the protein M of SARS-CoV Urbani / Binding of Control Serum Blood-Bank to Looped peptides of the protein M of SARS-CoV Urbani: unit not given here
# [3] = system: rabbit serum obtained by immunizing a rabbit with the SARS-CoV strain Frankfurt 1; format: binding; set-up: Binding of a rabbit serum to linear peptides / Binding of a rabbit serum to looped peptides / Rabbit serum linear peptides / Rabbit serum looped peptides / Binding of a rabbit serum to linear peptides of protein N of SARS-CoV Urbani (Rabbit serum linear peptides) / Binding of a rabbit serum to looped/cyclic peptides of protein N of SARS-CoV Urbani (Rabbit serum looped peptides): unit not given here
sequence,measurement,setting,value
VGLMWLSYFVASFRL,Binding of serum 1a to linear peptides of protein M of SARS-CoV Urbani,[1],0.6
same,Binding of serum 1a to looped/cyclic peptides of protein M of SARS-CoV Urbani,[1],0.6
same,Binding of serum 1b to linear peptides of protein M of SARS-CoV Urbani,[1],0.5
same,Binding of serum 1b to looped/cyclic peptides of protein M of SARS-CoV Urbani,[1],0.3
same,Binding of serum 2 to linear peptides of protein M of SARS-CoV Urbani,[1],0.4
same,Binding of serum 2 to looped/cyclic peptides of protein M of SARS-CoV Urbani,[1],0.5
same,Binding of serum 6 to linear peptides of protein M of SARS-CoV Urbani,[1],0.5
same,Binding of serum 6 to looped/cyclic peptides of protein M of SARS-CoV Urbani,[1],0.5
same,Binding of serum 37 to linear peptides of protein M of SARS-CoV Urbani,[1],0.4
same,Binding of serum 37 to looped/cyclic peptides of protein M of SARS-CoV Urbani,[1],0.6
same,Binding of serum 62 to linear peptides of protein M of SARS-CoV Urbani,[1],0.4
same,Binding of serum 62 to looped/cyclic peptides of protein M of SARS-CoV Urbani,[1],0.5
same,Binding of serum London to linear peptides of protein M of SARS-CoV Urbani,[1],0.5
same,Binding of serum London to looped/cyclic peptides of protein M of SARS-CoV Urbani,[1],0.2
same,Binding of serum SARS-green to linear peptides of protein M of SARS-CoV Urbani,[1],0.4
same,Binding of serum SARS-green to looped/cyclic peptides of protein M of SARS-CoV Urbani,[1],0.2
same,Binding of serum SARS-yellow to linear peptides of protein M of SARS-CoV Urbani,[1],0.1
same,Binding of serum SARS-yellow to looped/cyclic peptides of protein M of SARS-CoV Urbani,[1],0.8
same,Binding of Control Serum Blood-Bank to Looped peptides of the protein M of SARS-CoV Urbani,[2],0.6
same,Binding of Control serum Blood-bank to linear peptides of the protein M of SARS-CoV Urbani,[2],0.6
same,Binding of Control serum LUMC to linear peptides of the protein M of SARS-CoV Urbani,[2],0.5
same,Binding of Control serum LUMC to looped peptides of the protein M of SARS-CoV Urbani,[2],0.6
same,Rabbit serum linear peptides,[3],0.0
same,Rabbit serum looped peptides,[3],0.4
YYQLESTQITTDTGI,Binding of serum 1a to linear peptides of protein X1 of SARS-CoV Urbani,[1],0.7
same,Binding of serum 1a to looped/cyclic peptides of protein X1 of SARS-CoV Urbani,[1],0.4
same,Binding of serum 1b to linear peptides of protein X1 of SARS-CoV Urbani,[1],0.7
same,Binding of serum 1b to looped/cyclic peptides of protein X1 of SARS-CoV Urbani,[1],0.3
same,Binding of serum 2 to linear peptides of protein X1 of SARS-CoV Urbani,[1],0.4
same,Binding of serum 2 to looped/cyclic peptides of protein X1 of SARS-CoV Urbani,[1],0.2
same,Binding of serum 6 to linear peptides of protein X1 of SARS-CoV Urbani,[1],0.5
same,Binding of serum 6 to looped/cyclic peptides of protein X1 of SARS-CoV Urbani,[1],0.2
same,Binding of serum 37 to linear peptides of protein X1 of SARS-CoV Urbani,[1],0.7
same,Binding of serum 37 to looped/cyclic peptides of protein X1 of SARS-CoV Urbani,[1],0.5
same,Binding of serum 62 to linear peptides of protein X1 of SARS-CoV Urbani,[1],0.5
same,Binding of serum 62 to looped/cyclic peptides of protein X1 of SARS-CoV Urbani,[1],0.4
same,Binding of serum London to linear peptides of protein X1 of SARS-CoV Urbani,[1],0.2
same,Binding of serum London to looped/cyclic peptides of protein X1 of SARS-CoV Urbani,[1],0.2
same,Binding of serum SARS-green to linear peptides of protein X1 of SARS-CoV Urbani,[1],0.2
same,Binding of serum SARS-green to looped/cyclic peptides of protein X1 of SARS-CoV Urbani,[1],0.3
same,Binding of serum SARS-yellow to linear peptides of protein X1 of SARS-CoV Urbani,[1],0.3
same,Binding of serum SARS-yellow to looped/cyclic peptides of protein X1 of SARS-CoV Urbani,[1],0.3
same,Binding of Control Serum Blood-Bank to Looped peptides,[2],0.4
same,Binding of Control serum Blood-bank to linear peptides,[2],0.4
same,Binding of Control serum LUMC to linear peptides,[2],0.5
same,Binding of Control serum LUMC to looped peptides,[2],0.4
same,Binding of a rabbit serum to linear peptides,[3],0.1
same,Binding of a rabbit serum to looped peptides,[3],0.6
